Data taken from ChEMBL document CHEMBL1123796, “New antitumor agents containing the anthracene nucleus” (1987).

Columns and labels:
Assay type in all cases: functional
[1] = system: Mus musculus; test: Tested for skin toxicity in BALB/c mice at a significant dose of 0.25 mg/kg administered intraintradermally and involved concentric circular areas of erythema
[2] = system: L1210; test: Antileukemic activity against L-1210 cells in mice at a dose of 70 mg/kg administered intraperitoneally after 1 day treatment; details: Mus musculus, L1210, ip, 24 h, route intraperitoneal
[3] = system: L1210; test: Effect on protein synthesis was determined by incorporation of radioligand into L1210 murine leukemia at a concentration of 0.3 ug/mL (*: >50% cell kill); details: Mus musculus
[4] = system: P388; test: Antileukemic activity against P-388 in mice at a dose of 37.5 mg/kg administered intraperitoneally after 5 day treatment; details: Mus musculus, P388, ip, 120 h, route intraperitoneal
[5] = system: Mus musculus; test: Tested for skin toxicity in BALB/c mice at a significant dose of 2.00 mg/kg administered intraintradermally and involved concentric circular areas of induration.
[6] = system: Mus musculus; test: Tested for percent average weekly weight change in mice at a significant dose of 100 mg/kg administered intraperitoneally in mice after 5 days of treatment; details: route intraperitoneal
[7] = system: RPMI-8226; test: In vitro inhibition of human 8226 myeloma tumor cell line growth.; details: read-out: ID50 (the source's name)
[8] = system: Mus musculus; test: Tested for high-dose toxicity in mice at a significant dose of 90 mg/kg administered intraperitoneally after 5 days of treatment; details: route intraperitoneal
[9] = system: L1210; test: Effect on RNA synthesis was determined by incorporation of radioligand into L1210 murine leukemia at a concentration of 1 ug/mL. (*: >1 log cell kill); details: Mus musculus
[10] = system: Mus musculus; test: Tested for percent average weekly weight change in mice at a significant dose of 90 mg/kg administered intraperitoneally after 5 days of treatment; details: route intraperitoneal
[11] = system: RPMI-8226; test: Effect on DNA synthesis was determined by incorporation of radioligand into 8226 human myeloma cells at a concentration of 10 ug/mL (*: >1 log cell kill)
[12] = system: Mus musculus; test: Tested for skin toxicity in BALB/c mice at a significant dose of 2.5 mg/kg administered intraintradermally and involved concentric circular areas of erythema
[13] = system: Mus musculus; test: Tested for percent average weekly weight change in mice at a significant dose of 30 mg/kg administered intraperitoneally; details: route intraperitoneal
[14] = system: WiDr; test: Tested in vitro for inhibitory activity of human tumor cell growth against WIDR colon tumor, by using clonogenic assays.; details: read-out: ID50 (the source's name)
[15] = system: Mus musculus; test: Tested for high-dose toxicity in mice at a significant dose of 30 mg/kg administered intraperitoneally after 5 days of treatment; details: route intraperitoneal
[16] = system: RPMI-8226; test: Effect on DNA synthesis was determined by incorporation of radioligand into 8226 human myeloma cells at a concentration of 0.5 ug/mL. (*: >1 log cell kill)
[17] = system: Mus musculus; test: Tested for skin toxicity in BALB/c mice at a significant dose of 0.75 mg/kg administered intraintradermally and involved concentric circular areas of ulceration
[18] = system: L1210; test: Antileukemic activity against L-1210 cells in mice at a dose of 30 mg/kg administered intraperitoneally after 5 day treatment; details: Mus musculus, L1210, ip, 120 h, route intraperitoneal
[19] = system: P388; test: Antileukemic activity against P-388 in mice at a dose of 60 mg/kg administered intraperitoneally after 5 day treatment; details: Mus musculus, P388, ip, 120 h, route intraperitoneal
[20] = system: Mus musculus; test: Tested for skin toxicity in BALB/c mice at a significant dose of 1.25 mg/kg administered intraintradermally and involved concentric circular areas of erythema
[21] = In vitro inhibition of human UACC-66 ovarian tumor cell line growth.; details: read-out: ID50 (the source's name)
[22] = system: Mus musculus; test: Tested for skin toxicity in BALB/c mice at a significant dose of 2.00 mg/kg administered intraintradermally and involved concentric circular areas of erythema
[23] = system: L1210; test: Effect on DNA synthesis was determined by incorporation of radioligand into L1210 murine leukemia at a concentration of 0.5 ug/mL. (*: >1 log cell kill); details: Mus musculus
[24] = system: L1210; test: Effect on DNA synthesis was determined by incorporation of radioligand into L1210 murine leukemia at a concentration of 0.01 ug/mL; details: Mus musculus
[25] = system: L1210; test: Antileukemic activity against L-1210 cells in mice at a dose of 80 mg/kg administered intraperitoneally after 1 day treatment; details: Mus musculus, L1210, ip, 24 h, route intraperitoneal
[26] = system: L1210; test: Effect on RNA synthesis was determined by incorporation of radioligand into L1210 murine leukemia at a concentration of 10 ug/mL (*: >1 log cell kill); details: Mus musculus
[27] = system: L1210; test: Effect on RNA synthesis was determined by incorporation of radioligand into L1210 murine leukemia at a concentration of 0.5 ug/mL. (*: >1 log cell kill); details: Mus musculus
[28] = system: Mus musculus; test: Tested for skin toxicity in BALB/c mice at a significant dose of 2.5 mg/kg administered intraintradermally and involved concentric circular areas of ulceration
[29] = system: Mus musculus; test: Tested for high-dose toxicity in mice at a significant dose of 52.5 mg/kg administered intraperitoneally after 5 days of treatment; details: route intraperitoneal
[30] = system: Mus musculus; test: Tested for high-dose toxicity in mice at a significant dose of 60 mg/kg administered intraperitoneally after 5 days of treatment; details: route intraperitoneal
[31] = system: P388; test: Antileukemic activity against P-388 in mice at a dose of 80 mg/kg administered intraperitoneally after 1 day treatment; details: Mus musculus, P388, ip, 24 h, route intraperitoneal
[32] = system: Mus musculus; test: Tested for skin toxicity in BALB/c mice at a significant dose of 0.25 mg/kg administered intraintradermally and involved concentric circular areas of induration.
[33] = system: Mus musculus; test: Tested for percent average weekly weight change in mice at a significant dose of 60 mg/kg administered intraperitoneally after 5 days of treatment; details: route intraperitoneal
[34] = system: Mus musculus; test: Tested for high-dose toxicity in mice at a significant dose of 80 mg/kg administered intraperitoneally after 1 days of treatment; details: route intraperitoneal
[35] = system: Mus musculus; test: Tested for skin toxicity in BALB/c mice at a significant dose of 2.00 mg/kg administered intraintradermally and involved concentric circular areas of ulceration
[36] = system: RPMI-8226; test: Effect on protein synthesis was determined by incorporation of radioligand into 8226 human myeloma cells at a concentration of 0.01 ug/mL
[37] = system: L1210; test: Effect on RNA synthesis was determined by incorporation of radioligand into L1210 murine leukemia at a concentration of 0.3 ug/mL (*: >50% cell kill); details: Mus musculus
[38] = system: L1210; test: Effect on RNA synthesis was determined by incorporation of radioligand into L1210 murine leukemia at a concentration of 0.01 ug/mL; details: Mus musculus
[39] = system: Mus musculus; test: Tested for high-dose toxicity in mice at a significant dose of 37.5 mg/kg administered intraperitoneally after 5 days of treatment; details: route intraperitoneal
[40] = system: RPMI-8226; test: Effect on protein synthesis was determined by incorporation of radioligand into 8226 human myeloma cells at a concentration of 1 ug/mL. (*: >1 log cell kill)
[41] = system: L1210; test: Antileukemic activity against L-1210 cells in mice at a dose of 60 mg/kg administered intraperitoneally after 5 day treatment; details: Mus musculus, L1210, ip, 120 h, route intraperitoneal

SMILES: CN(C)CCNCc1c2ccccc2c(CNCCN(C)C)c2ccccc12
- Extent of skin lesions [1]: 0.3 cm**2
- ILS at 70 mg/kg [2]: 40%
- inhibition at 0.3 µg/mL [3]: 9.8%
- ILS at 37.5 mg/kg [4]: 0%
- Extent of skin lesions [5]: 5.3 cm**2
- Average weekly weight change [6]: -15%
- IC50 [7]: 160 nM
- Lethality [8]: 20%
- Median day of death [8]: 3
- inhibition at 1 µg/mL [9]: 6.9%
- Average weekly weight change [10]: -11%
- inhibition at 10 µg/mL [11]: 82.2%
- Extent of skin lesions [12]: 5 cm**2
- Average weekly weight change [13]: -3%
- IC50 [14]: 180 nM
- Lethality [15]: 0%
- inhibition at 0.5 µg/mL [16]: 24.3%
- Extent of skin lesions [17]: 1 cm**2
- ILS at 30 mg/kg [18]: 5%
- ILS at 60 mg/kg [19]: 25%
- Extent of skin lesions [20]: 2.2 cm**2
- IC50 [21]: 1600 nM
- Extent of skin lesions [22]: 3.1 cm**2
- inhibition at 0.5 µg/mL [23]: 5.8%
- inhibition at 0.01 µg/mL [24]: 0%
- ILS at 80 mg/kg [25]: 14%
- inhibition at 10 µg/mL [26]: 96.3%
- inhibition at 0.5 µg/mL [27]: 7.2%
- Extent of skin lesions [28]: 3.8 cm**2
- Lethality [29]: 100%
- Median day of death [29]: 4
- Lethality [30]: 0%
- ILS at 80 mg/kg [31]: 36%
- Extent of skin lesions [32]: 0.7 cm**2
- Average weekly weight change [33]: 0%
- Lethality [34]: 10%
- Median day of death [34]: 12
- Extent of skin lesions [35]: 2.6 cm**2
- inhibition at 0.01 µg/mL [36]: 67.5%
- inhibition at 0.3 µg/mL [37]: 0%
- inhibition at 0.01 µg/mL [38]: 0%
- Lethality [39]: 20%
- Median day of death [39]: 2
- inhibition at 1 µg/mL [40]: 45.9%
- ILS at 60 mg/kg [41]: 27%
